In US10959986B2, “Inhibitors of indoleamine 2,3-dioxygenase and methods of their use” (BRISTOL-MYERS SQUIBB COMPANY, priority 2018, dated 2021) one finds IC50 data, which are given here for twelve compounds.

Assay [1] deals with T1, human IDO1 (Homo sapiens, UniProt P14902).
T1 construct: expressed in transfected cells
The experiment in a line: HEK293 cell-based indoleamine 2,3-dioxygenase (IDO) assay. Conditions: HEK293 cells stably expressing human IDO1, 20 hours incubation; read-out: IDO1 HEK Human IC50. The method, then:
Assessment of Inhibitor Activity in HEK293 Cell-Based Indoleamine 2,3-Dioxygenase (IDO) Assay.
HEK293 cells were transfected with a pCDNA-based mammalian expression vector harboring human IDO1 cDNA (NM 002164.2) by electroporation. They were cultured in medium (DMEM with 10% FBS) containing 1 mg/ml G418 for two weeks. Clones of HEK293 cells that stably expressed human IDO1 protein were selected and expanded for IDO inhibition assay.
The human IDO1/HEK293 cells were seeded at 10,000 cells per 50 μL per well with RPMI/phenol red free media contains 10% FBS in a 384-well black wall clear bottom tissue culture plate (Matrix Technologies LLC) 100 nL of certain concentration of compound was then added to each well using ECHO liquid handling systems. The cells were incubated for 20 hours in 37° C. incubator with 5% CO2.
The compound treatments were stopped by adding trichloroacetic acid (Sigma-Aldrich) to a final concentration at 0.2%. The cell plate was further incubated at 50° C. for 30 minute. The equal volume supernatant (20 μL) and 0.2% (w/v) Ehrlich reagent (4-dimethylaminobenzaldehyde, Sigma-Aldrich) in glacial acetic acid were mixed in a new clear bottom 384-well plate. This plate was then incubated at room temperature for 30 minute. The absorbance at 490 nm was measured on Envision plate reader.
Compound IC50 values were calculated using the counts of 500 nM of a reference standard treatment as one hundred percent inhibition, and counts of no compound but DMSO treatment as zero percent inhibition.

The target of assay [2] is T2, indoleamine 2,3-dioxygenase (IDO) (Homo sapiens, UniProt P14902).
T2 construct: media containing IFNγ (#285-IF/CF, R&D Systems) at a final concentration of 25 ng/mL; endogenous in cells; host or cells: HeLa (ATCC CCL-2), induced with IFN-gamma
The experiment in a line: HeLa cell-based indoleamine 2,3-dioxygenase (IDO) assay. Conditions: HeLa cells with IFNγ 25 ng/mL, 48 hour incubation, kynurenine production. On the procedure:
Assessment of Inhibitor Activity in HeLa Cell-Based Indoleamine 2,3-Dioxygenase (IDO) Assay.
HeLa (ATCCR CCL-2) cells were obtained from the ATCC® and cultured in Dulbecco's Modified Eagle Medium supplemented with 4.5 g/L glucose, […] L-glutamine and […] (#10-013-CV, Corning), 2 mM L-alanyl-L-glutamine dipeptide (#35050-061, Gibco), 100U/mL penicillin, 100 µg/mL streptomycin (#SV30010, HyClone) and 10% fetal bovine serum (#SH30071.03 HyClone). Cells were maintained in a humidified incubator at 37° C. in 5% CO2.
IDO activity was assessed as a function of kynurenine production as follows: HeLa cells were seeded in a 96-well culture plate at a density of 5,000 cells/well and allowed to equilibrate overnight. After 24 hours, the media was aspirated and replaced with media containing IFNγ (#285-IF/CF, R&D Systems) at a final concentration of 25 ng/mL. A serial dilution of each test compound was added to the cells in a total volume of 200 μL of culture medium. After a further 48 hour incubation, 170 μL of supernatant was transferred from each well to a fresh 96-well plate. 12.1 μL of 6. IN trichloroacetic acid (#T0699, Sigma-Aldrich) was added to each well and mixed, followed by incubation at 65° C. for 20 minutes to hydrolyze N-formylkynurenine, the product of indoleamine 2,3-dioxygenase, to kynurenine. The reaction mixture was then centrifuged for 10 mins at 500×g to sediment the precipitate. 100 μL of the supernatant was transferred from each well to a fresh 96-well plate. 100 μl of 2% (w/v) p-dimethylaminobenzaldehyde (#15647-7, Sigma-Aldrich) in acetic acid (#A6283, Sigma-Aldrich) was added to each well mixed and incubated at room temperature for 20 mins. Kynurenine concentrations were determined by measuring absorbance at 480 nm and calibrating against an L-kynurenine (#K8625, Sigma-Aldrich) standard curve using a SPECTRAMAX® M2e microplate reader (Molecular Devices). The percentage activity at each inhibitor concentration was determined and IC50 values assessed using nonlinear regression.

[3] abbreviates: read-out: IDO Hela IC50 potency class (A < 50, B < 250, C < 2000).

Where two headings read alike, the source gives them in different places. Where only a bound is given, the exact number is not on record here.

T2 sequence (P14902 whole entry): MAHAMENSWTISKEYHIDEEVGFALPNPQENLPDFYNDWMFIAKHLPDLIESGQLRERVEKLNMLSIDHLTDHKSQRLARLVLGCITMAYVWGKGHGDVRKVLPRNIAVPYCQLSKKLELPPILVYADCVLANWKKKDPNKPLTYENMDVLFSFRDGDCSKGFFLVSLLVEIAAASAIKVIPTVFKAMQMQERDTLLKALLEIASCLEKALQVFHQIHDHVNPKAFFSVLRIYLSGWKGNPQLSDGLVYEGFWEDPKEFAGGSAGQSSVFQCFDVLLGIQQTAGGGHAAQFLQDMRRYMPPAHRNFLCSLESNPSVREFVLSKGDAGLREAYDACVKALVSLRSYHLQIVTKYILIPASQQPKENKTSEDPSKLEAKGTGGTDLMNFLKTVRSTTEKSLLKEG
T1 sequence (P14902 whole entry): as above

For the compound `CC[C@@H](CC(=O)O)c1ccc([C@H]2CC[C@@H](c3ccccc3)CC2)c(NC(=O)Nc2ccc(C)cc2)c1` (single isomer, unassigned) [Example 1-1, 3-(4-(4-phenylcyclohexyl)-3-(3-(p-tolyl)ureido)phenyl)pentanoic acid], the IC50 in assay [1] came out at 499 nM.

Consider `CC[C@@H](CC(=O)O)c1ccc([C@H]2CC[C@@H](c3ccccc3)CC2)c(NC(=O)Nc2ccc(C)cc2)c1` (single isomer, unassigned) [Example 1-2, 3-(4-(4-phenylcyclohexyl)-3-(3-(p-tolyl)ureido)phenyl)pentanoic acid], for which the IC50 in assay [1] stood at 1600 nM.

As to `CC[C@@H](CC(=O)O)c1ccc([C@H]2CC[C@@H](c3ccccc3)CC2)c(NC(=O)Nc2ccc(C)cc2)c1` (single isomer, unassigned) [Example 1-4, 3-(4-(4-phenylcyclohexyl)-3-(3-(p-tolyl)ureido)phenyl)pentanoic acid], the IC50 in assay [1] is 3 nM; in assay [2] (setting [3]) it was < 50 nM.

Consider `CC[C@@H](CC(=O)O)c1ccc([C@H]2CC[C@@H](c3ccccc3)CC2)c(NC(=O)Nc2ccc(C)cc2)c1` (single isomer, unassigned) [Example 2-3, 3-(4-(4-phenylcyclohexyl)-3-(3-(p-tolyl)ureido)phenyl)pentanoic acid], for which the results for the IC50 in assay [1] and in assay [2] (setting [3]) were 1 nM and < 50 nM, respectively.

For the compound `CCOc1ncc(Nc2cc([C@H](CC)CC(=O)O)ccc2-c2csc(-c3ccccc3)n2)cn1` (single isomer, unassigned) [Example 82], the IC50 in assay [2] (read-out: IDO Hela IC50) is 110 nM.

In the case of `CCOc1ncc(Nc2cc([C@H](CC)CC(=O)O)ccc2-c2ccc3c(c2)OC(F)(F)O3)cn1` (single isomer, unassigned) [Example 83], the IC50 in assay [2] (read-out: IDO Hela IC50) amounted to 170 nM.

`CCOc1ncc(Nc2cc([C@H](CC)CC(=O)O)ccc2-c2ccnc(N3CCOCC3)n2)cn1` (single isomer, unassigned) [Example 84]: the IC50 in assay [2] (read-out: IDO Hela IC50) turned out to be 760 nM.

For the compound `CCOc1ncc(Nc2cc([C@H](CC)CC(=O)O)ccc2-c2ccc3cncn3c2)cn1` (single isomer, unassigned) [Example 85], the values for the IC50 in assay [2] (read-out: IDO Hela IC50) and in assay [2] (setting [3]) were ≥ 1000 nM and 250 to 2000 nM, respectively.

Take `CCOc1ncc(Nc2cc([C@H](CC)CC(=O)O)ccc2-c2ccn3ccnc3c2)cn1` (single isomer, unassigned) [Example 86]: the values for the IC50 in assay [2] (read-out: IDO Hela IC50) and in assay [2] (setting [3]) were ≥ 1000 nM and 250 to 2000 nM, respectively.

As for `CCOc1ncc(Nc2cc([C@H](CC)CC(=O)O)ccc2-c2nc(-c3ccccc3)cs2)cn1` (single isomer, unassigned) [Example 87], the results for the IC50 in assay [2] (read-out: IDO Hela IC50) and in assay [2] (setting [3]) were ≥ 1000 nM and 250 to 2000 nM, respectively.

On to `CCOc1ncc(Nc2cc([C@H](CC)CC(=O)O)ccc2-c2nnc(C)s2)cn1` (single isomer, unassigned) [Example 89], for which the IC50 in assay [2] (read-out: IDO Hela IC50) is 400 nM.

Consider “(S)-3-(2-((4-cyanophenyl)amino)- -methyl- [1,1′-biphenyl]-4-yl)-4-methoxybutanoic acid [Example 37]”, for which the IC50 was ≥ 1000 nM in assay [2] (read-out: IDO Hela IC50) and 250 to 2000 nM in assay [2] (setting [3]).

By IC50 is commonly meant the concentration that inhibits the measured activity by half.
